These results are taken from patent US11744901B2, “Phage conjugates and uses thereof” (CONSIGLIO NAZIONALE DELLE RICERCHE, priority 2017, dated 2023).

The conditions of data set [1]: human immunotherapy, repeated KRN7000 administration; cited from earlier work.
The subject of a further data set is splenocytes. Particulars: stated as known, cited from earlier work.
Another data set deals with B16 melanoma cells. Briefly: Therapeutic vaccination against B16 tumour cells. The format is in vivo. The conditions noted are these: B16 melanoma subcutaneous in C57BL/6 mice, intratumoural treatment when tumours palpable; FIG. 4. The procedure: C57BL/6 mice (n=5/group) were inoculated with 2.5×10^5 B16 melanoma cells kindly provided by Dr. Dellabona (Istituto scientifico San Raffaele, Milan, Sartorius R et al., 2011) subcutaneously in the left side. When the tumours became palpable, the mice were vaccinated with PBS, 2.5 micrograms aGalCer, 50 micrograms of fdWT bacteriophages or 50 micrograms of fdWT/aGalCer in a total volume of 80 microliters. Tumour growth was assessed three times a week using a caliber and reported as tumour volume (in mm^3) according to the formula (d^2×D)/2, where d and D are the minor diameter and the major one, respectively. The mice were sacrificed when the size of the tumour had exceeded 1,500 mm^3, in compliance with the established guidelines. Survival was recorded as the percentage of surviving animals.

In another data set the test system is iNKT cells. The conditions noted are these: animal model; prevents release of cytokines after recall stimulations (Sullivan and Kronenberg 2005); cited from earlier work.

For `CCCCCCCCCCCCCCCCCCCCCCCCCC(=O)N[C@@H](CO[C@H]1OC(CO)[C@H](O)C(O)C1O)[C@H](O)[C@H](O)CCCCCCCCCCCCCC` (stereo partly drawn) [aGalCer, alpha-Galactosylceramide], the tolerability in patients entry in data set [1] is reported as “well tolerated”.

Turning to `CCCCCCCCCCCCCCCCCCCCCCCCCC(=O)N[C@@H](CO[C@H]1O[C@H](CO)[C@H](O)[C@H](O)[C@H]1O)[C@H](O)[C@H](O)CCCCCCCCCCCCCC` [aGalCer, alpha-Galactosylceramide], the “clinical response in patients” value in data set [1] is given as “weak clinical response”. In addition, the “levels of T-cell receptor (TCR) on iNKTs” value in the data set on splenocytes (administered intravenously to mice) is “decrease”. Further, the “ability of splenocytes to proliferate and produce cytokines after in vitro restimulation with aGalCer” value in the data set on splenocytes (mice injected with soluble aGalCer, compared to naive splenocytes) is “lose rapidly their ability to proliferate and produce cytokines”. In the data set with B16 melanoma cells, the tumour growth entry was “not able to protect animals from tumour growth”. Also, in the data set with iNKT cells, the “anergy of iNKT cells” value is “induces long term cell anergy of iNKT cells”.
